Results published in PMC5656594 (Scientific Reports, 2017).

Experiments:
IN alone (IN^PFV) = target: T1, IN alone (IN^PFV) (Human spumaretrovirus, UniProt P14350); assay: DTG fluorescence enhancement in the presence of IN alone; type: binding, prototype foamy virus (PFV); settings: 1 mM Mg2+
T1 construct: The full-length wt IN^PFV, the three single mutants of the catalytic triad; His; made in house; host or cells: E. coli BL21-CodonPlus (DE3)-RIPL
Method: The three other conditions (i→iii) led to superimposable spectra. To note, the presence of IN/DNA complexes accounts for light scattering on the blue side of the spectrum.
All experiments were performed in the presence of 1 mM Mg^2+ (see Supplementary Fig. S4 for [Mg^2+] = 10 mM). λex = 345 nm and PMT = 980 V (Δλex = Δλem = 5 nm). […] Contributions of Raman and Rayleigh scattering were eliminated in the inset spectrum: (viii) = (iv)–(vii) where (vii) represents the proper spectrum of Mg^2+-DTG in the context of the binary IN-DNA complex. […] [Mg^2+] = 1 mM. Inset: fluorescence intensity (375–385 nm) as a function of (IN + DNA). The arrows indicate the intensity level after addition of 500 mM NaCl. Emission spectra are representative of 3 independent experiments for each condition of (IN + DNA). […] (E) Measurement of the binary IN-DNA complex formation. The formation of binary complexes was performed by monitoring the fluorescence anisotropy (r) of DNA (Fl-PFV^CAAT) under similar experimental conditions of the DTG-binding assay (panels C-D). Top, varying stoichiometric concentrations of IN and DNA were mixed and the r parameter was monitored. […]
Fluorescence excitation and emission spectra of INSTIs were recorded on a Eclipse (Varian) spectrofluorimeter equipped with two polarizers for anisotropy measurements and a thermostated cell holder, using 80 µl solutions placed in micro cells (Hellma). […]

S217K IN^PFV mutant = type: biochemical, prototype foamy virus (PFV); settings: S217K versus wt, ST activity
Method: The graphs show representative data of three independent experiments. […] ST products were quantified as explained in the Methods section.
DNA#13 mimicking the 3′-processed end (Table 1) was radiolabeled with T4 polynucleotide kinase (NEB) and [γ-^32P]ATP (Amersham) and purified on a Sephadex G-10 column. The double-stranded DNA substrate was obtained by mixing equimolar amounts of ssDNA#13 with its 21-mer complementary strand in the presence of 100 mM NaCl. ST reactions were carried out at 37 °C with 200 or 300 nM IN in 20 mM HEPES pH 6.8, 1 mM DTT, 10 mM MgCl2 and 50 mM NaCl, in the presence of 12.5 nM DNA. After separation in a 16% acrylamide/urea denaturing gel, ST products were analyzed with a Typhoon TRIO variable mode imager (GE Healthcare) and quantified with ImageQuant TL software. ST activity was expressed as the % of the signal intensity of ST products divided by the signal intensity of the DNA substrate. […] IC50 values were determined using the Prism 5.0 software.

G187R IN^PFV-DNA complex = target: T2, G187R IN^PFV-DNA complex (Human spumaretrovirus, UniProt P14350, G938R/G968S/S969G); assay: DTG fluorescence anisotropy binding assay, G187R mutant; parameters: species or system prototype foamy virus (PFV); settings: 10 mM Mg2+, DTG 0.6 μM, [IN]=[DNA]=2.4 μM
T2 construct: The pET-IN-PFV plasmid containing the full-length IN gene was used for mutagenesis; His; made in house; host or cells: E. coli BL21-CodonPlus (DE3)-RIPL
Method: The fluorescence intensity was monitored as a function of (IN + DNA) and plotted as a function of the binary IN-DNA complex concentration (measured as explained in Fig. 2E legend). […] (B) The percentage of ternary complexes was calculated using DTG fluorescence enhancement. […] The graphs in panels A-B show representative data of three independent experiments. […] "DTG" is taken from the y-axis title of the same panel.
To note, Mg^2+ is dispensable for the overall DNA-binding step of IN[32],[43]–[45] and thus, the loss of Mg^2+ chelation is not contradictory with results showing that catalytic mutants bind equally well to DNA and in a similar manner than wt IN (Supplementary Fig. S6). However, G187R cannot be considered as a catalytic mutant since it sustains a significant ST activity although weak (≈10% of the wt activity; Fig. 6).
Fluorescence excitation and emission spectra of INSTIs were recorded on a Eclipse (Varian) spectrofluorimeter equipped with two polarizers for anisotropy measurements and a thermostated cell holder, using 80 µl solutions placed in micro cells (Hellma). […] The steady-state fluorescence anisotropy was calculated using: r = (IVV–G x IVH)/(IVV + 2GxIVH) where IVV and IVH correspond to vertical and horizontal components, respectively, when the sample is excited with vertically polarized light. […]

C[C@@H]1CCO[C@H]2Cn3cc(C(=O)NCc4ccc(F)cc4F)c(=O)c(O)c3C(=O)N12 [DTG, dolutegravir]
DTG binding to IN alone (IN alone (IN^PFV)): no DTG binding
decrease in DTG susceptibility (S217K IN^PFV mutant): ≈ 50 fold
DTG binding to G187R by DTG anisotropy (G187R IN^PFV-DNA complex): DTG-binding defects
